Source: article PMC3699648, “Replacement of the Human Topoisomerase Linker Domain with the Plasmodial Counterpart Renders the Enzyme Camptothecin Resistant” (PLoS ONE, 2013)

Target: T1, hTop1 (Homo sapiens, UniProt P11387)
T1 construct: gene TOP1; expressed in S. cerevisiae top1 null EKY3, anti-FLAG purified
T1 sequence (P11387 1-765): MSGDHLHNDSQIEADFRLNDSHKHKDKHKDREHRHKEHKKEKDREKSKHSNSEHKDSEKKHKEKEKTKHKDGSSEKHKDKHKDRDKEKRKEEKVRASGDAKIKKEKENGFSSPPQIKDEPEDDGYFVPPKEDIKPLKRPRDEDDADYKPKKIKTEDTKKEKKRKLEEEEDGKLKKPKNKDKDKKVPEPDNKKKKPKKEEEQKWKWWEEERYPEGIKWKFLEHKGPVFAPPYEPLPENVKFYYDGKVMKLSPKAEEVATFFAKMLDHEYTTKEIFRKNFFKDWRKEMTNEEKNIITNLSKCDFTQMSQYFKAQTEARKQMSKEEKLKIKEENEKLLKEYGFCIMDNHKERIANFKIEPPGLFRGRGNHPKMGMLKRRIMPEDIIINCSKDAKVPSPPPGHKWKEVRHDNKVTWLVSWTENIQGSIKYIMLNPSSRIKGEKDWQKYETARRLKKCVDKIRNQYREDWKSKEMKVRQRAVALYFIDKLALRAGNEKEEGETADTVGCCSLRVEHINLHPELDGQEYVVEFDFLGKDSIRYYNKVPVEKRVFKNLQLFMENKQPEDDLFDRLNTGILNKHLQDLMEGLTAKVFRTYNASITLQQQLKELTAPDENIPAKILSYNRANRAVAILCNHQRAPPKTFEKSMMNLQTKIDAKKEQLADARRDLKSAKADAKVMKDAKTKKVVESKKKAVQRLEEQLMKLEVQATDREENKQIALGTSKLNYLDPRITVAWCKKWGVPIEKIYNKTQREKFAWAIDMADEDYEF
Assay: stabilisation of DNA cleavage complex (CL25/CP25, gel); also relaxation and religation assays
Type: biochemical
Details: 100 µM CPT, 20 nM duplex CL25/CP25, 1 min, 25 °C, pH 7.5, 5 mM MgCl2, 5 mM CaCl2, 150 mM KCl; binds covalent enzyme-DNA complex

## CC[C@@]1(O)C(=O)OCc2c1cc1n(c2=O)Cc2cc3ccccc3nc2-1 [CPT, camptothecin]
  % cleavage complex at 100 μM: In presence of CPT the hTop1 cleavage is strongly increased
